Counter-ions that a name gives are not always drawn. Like-named read-outs stand apart in the source and are kept apart here.
What was measured:
[1] = cited from earlier work
[2] = test system: potassium conductance of pancreatic beta cells; details: cited from earlier work
[3] = cited from earlier work; remark: listed apart in the source
potassium channel = details: requires millimolar concentrations; cited from earlier work
[4] = test system: chloride conductance of CF/T43 cells; experiment: whole-cell chloride current in CF/T43 cystic fibrosis airway epithelial cells; format: cell-based, human
Description: An aliquot of cells from a cell line, CF/T43, derived from airway epithelia from a patient with cystic fibrosis were used.
Data were obtained using internal and external solutions as described by McCann, Li and Welsh in studies of whole cell ICI in normal human airway epithelial cells so as to be able to compare our data with theirs. The internal solutions are cesium-based providing a minimal internal calcium concentration (nominally 0-10 nM, with EGTA) and the external solution is sodium-based with symmetrical CI concentrations of 140 mM. No cyclic nucleotides are included in the solutions and amiloride is added to block the sodium conductance.

chloride channel = experiment: whole-cell patch clamp of chloride channel current in isolated cells from a cultured kidney cell line
Text: Using isolated cells from a cultured kidney cell line, we tested the effects of various doses of Sparteine applied to the interior and exterior of the cell on current through the chloride channel as measured with standard patch clamp electrophysiologic techniques.

sodium channels = sodium channels (Cavia porcellus, UniProt A0A286Y3I8); details: requires millimolar concentrations; cited from earlier work

For `C1CCN2C[C@@H]3C[C@@H](CN4CCCC[C@@H]34)[C@H]2C1` [Sparteine sulfate], the insulin secretion ([1]; healthy human beings) is listed as “enhance insulin secretion”, the glucagon secretion ([1]; insulin-dependent diabetics) is listed as “increase glucagon secretion” and the insulin secretion ([1]; non-diabetic obese individuals, intravenous administration) is listed as “significant increase in insulin secretion”. The “potassium conductance of pancreatic beta cells” value [2] was “decreases the potassium conductance” and the “water solubility and stability” value [3] was “water soluble and stable”.
In the case of `C1CCN2CC3CC(CN4CCCCC34)C2C1` (stereo not drawn) [Sparteine, dodecahydro-7,14-methano-2H,6H-di-pyrido[1,2-a:1',2'-e][1,5]diazocine], the “action on olfactory tract axons” value (potassium channel) is listed as “potassium channel blocker”, the current amplitude ([4]; external 0.1 nM, no cyclic nucleotides, minimal internal calcium, amiloride present) is listed as “marked increase in current amplitude” and the “reversal potential of the induced current” value ([4]; external 0.1 nM, symmetrical Cl 140 mM) is listed as 0 mV. For the same compound, the “induction of chloride current in cystic fibrosis cells” value ([4]; pM, absence of cytosolic Ca^2+ and cyclic nucleotides) was “induces a chloride current”, the “reversibility of the activated current” value ([4]; washout) was “reversible” and the “chloride current relative to the control value” (chloride channel; Sparteine 0.1, 50 and 500 μM) was 10-20 X. The “peak current through the chloride channel” value (chloride channel; Sparteine 0.1, 50 and 500 μM, cells dialyzed with ATP, no cAMP, 10 nM calcium, depolarized to +70 mV from holding potential -45 mV) was 80-200 μA/cm^2, the “time course of the activated current with increasing dose” value (chloride channel; above 0.1 μM) was “increasingly rapid decline in the activated current” and the “effect of externally applied compound on chloride current” value (chloride channel; external, 0.1 to 10 nM) was “marked augmentation of the chloride current”. The “effect on the chloride channel at higher concentrations” value (chloride channel; higher (micromolar-millimolar) concentrations) was “potent inhibitor”, the “effect on the chloride channel at low concentrations” value (chloride channel; low (pico-nanomolar) concentrations) was “very potent activator” and the “antiarrhythmic classification due to effects on sodium channels” value (sodium channels) was “Class 1 cardiac antiarrhythmic”.
With calcium the “maximum chloride current with known activator added to the internal solution” value (chloride channel; depolarized to +70 mV from -45 mV) was 40-50.

— patent US5100647A, “Method and formulations for the therapy of cystic fibrosis, Bartter's syndrome and secretory diarrheas, and for diuretic treatment” (The Trustees of the University of Pennsylvania, priority 1990, dated 1992)
